Measured values taken from patent US10758534B2 (Vertex Pharmaceuticals Incorporated, priority 2014, dated 2020).

Target: T1, F508del (Homo sapiens, UniProt P13569, DEL508-508)
T1 construct: expressed in transfected cells
Test: Protocol 2: FRET membrane potential optical assay (VIPR), identification of correction compounds
Type: cell-based
Details: Table 3; compounds of Table 1 as modulators of CFTR activity; protocol not stated
How it was run: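 Single-addition HTS format: F508del-expressing NIH3T3 cells pre-incubated 16 hrs at 37° C. ± compound, with 27° C. culture as positive control. Channel activation by forskolin 10 μM and genistein 20 μM upon switch to gluconate bath, pH 7.4; read-out is FRET-based depolarization signal.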

T1 sequence (P13569 with tags, fused parts or gaps DEL508-508): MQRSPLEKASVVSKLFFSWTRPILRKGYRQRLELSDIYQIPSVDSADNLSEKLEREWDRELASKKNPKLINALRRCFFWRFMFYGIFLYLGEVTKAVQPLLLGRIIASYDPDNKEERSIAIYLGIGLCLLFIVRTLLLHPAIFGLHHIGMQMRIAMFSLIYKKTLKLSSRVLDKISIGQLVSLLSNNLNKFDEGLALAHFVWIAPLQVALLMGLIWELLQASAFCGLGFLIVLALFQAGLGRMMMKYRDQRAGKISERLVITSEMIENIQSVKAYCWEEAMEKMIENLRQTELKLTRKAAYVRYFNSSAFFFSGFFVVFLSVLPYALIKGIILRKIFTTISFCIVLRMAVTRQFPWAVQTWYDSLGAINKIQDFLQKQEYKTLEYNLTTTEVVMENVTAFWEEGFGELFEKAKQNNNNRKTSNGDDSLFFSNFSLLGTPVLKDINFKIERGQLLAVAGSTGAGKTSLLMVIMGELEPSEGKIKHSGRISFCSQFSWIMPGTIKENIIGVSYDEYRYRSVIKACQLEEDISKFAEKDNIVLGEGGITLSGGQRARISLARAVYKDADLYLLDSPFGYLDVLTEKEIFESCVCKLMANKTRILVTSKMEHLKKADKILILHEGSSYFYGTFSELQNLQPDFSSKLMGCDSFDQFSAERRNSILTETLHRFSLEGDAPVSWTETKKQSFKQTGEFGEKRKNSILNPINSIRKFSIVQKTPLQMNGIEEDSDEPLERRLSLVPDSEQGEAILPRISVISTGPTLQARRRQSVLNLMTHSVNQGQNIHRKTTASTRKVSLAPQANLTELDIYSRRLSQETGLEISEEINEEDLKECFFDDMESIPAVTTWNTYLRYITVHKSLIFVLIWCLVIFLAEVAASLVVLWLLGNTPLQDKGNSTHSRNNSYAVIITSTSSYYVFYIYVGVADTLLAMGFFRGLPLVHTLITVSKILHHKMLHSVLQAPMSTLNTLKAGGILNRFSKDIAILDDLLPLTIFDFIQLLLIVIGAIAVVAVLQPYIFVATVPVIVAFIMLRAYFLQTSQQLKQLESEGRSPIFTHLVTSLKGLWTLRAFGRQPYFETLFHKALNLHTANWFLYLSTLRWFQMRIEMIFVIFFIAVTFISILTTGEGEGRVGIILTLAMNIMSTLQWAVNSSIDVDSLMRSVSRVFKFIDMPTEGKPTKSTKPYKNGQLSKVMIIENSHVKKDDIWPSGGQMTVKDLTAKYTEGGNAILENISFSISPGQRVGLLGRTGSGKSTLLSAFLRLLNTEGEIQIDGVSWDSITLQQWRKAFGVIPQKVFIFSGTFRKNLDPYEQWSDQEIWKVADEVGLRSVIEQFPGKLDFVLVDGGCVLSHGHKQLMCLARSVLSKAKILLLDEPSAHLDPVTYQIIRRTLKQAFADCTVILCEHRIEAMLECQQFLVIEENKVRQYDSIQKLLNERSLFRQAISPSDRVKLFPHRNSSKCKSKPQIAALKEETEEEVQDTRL

| EC30 | SMILES |
| --- | --- |
| +++ (“+++” means <3 uM) | Cc1cc(C)c(Cn2c(C(=O)NS(=O)(=O)c3cccc(N)c3)nc3ccccc32)c(C)c1 [Compound 71, N-(3-aminophenyl)sulfonyl-1-[(2,4,6-trimethylphenyl)methyl]benzimidazole-2-carboxamide] |
| ++ (“++” means between 3 uM and 10 uM) | CCCOc1cc(-c2ccc(C(=O)NS(=O)(=O)c3ccc[nH]c3=O)c(Oc3c(C)cc(C)cc3C)n2)ccc1Cl [Compound 72, 6-(4-chloro-3-propoxy-phenyl)-N-[(2-oxo-1H-pyridin-3-yl)sulfonyl]-2-(2,4,6-trimethylphenoxy)pyridine-3-carboxamide] |
| +++ (“+++” means <3 uM) | Cc1cc(C)c(CN2Cc3ccccc3C2C(=O)NS(=O)(=O)c2cccc(N)n2)c(C)c1 (stereo not drawn) [Compound 73, N-[(6-amino-2-pyridyl)sulfonyl]-2-[(2,4,6-trimethylphenyl)methyl]isoindoline-1-carboxamide] |
| +++ (“+++” means <3 uM) | Cc1ccc(-c2nc(C(C)(C)C)ccc2C(=O)NS(=O)(=O)c2ccccc2)cc1 [Compound 74, N-(benzenesulfonyl)-6-tert-butyl-2-(p-tolyl)pyridine-3-carboxamide] |
| ++ (“++” means between 3 uM and 10 uM) | COc1cccc(S(=O)(=O)NC(=O)c2ccc(C(C)(C)C)nc2-c2ccc(C)cc2)n1 [Compound 75, 6-tert-butyl-N-[(6-methoxy-2-pyridyl)sulfonyl]-2-(p-tolyl)pyridine-3-carboxamide] |
| +++ (“+++” means <3 uM) | Cc1cccc(C)c1Cn1nc(-c2ccc(N(C)C)cc2)cc1C(=O)NS(=O)(=O)c1ccccc1 [Compound 76, N-(benzenesulfonyl)-5-(4-dimethylaminophenyl)-2-[(2,6-dimethylphenyl)methyl]pyrazole-3-carboxamide] |
| +++ (“+++” means <3 uM) | Cc1cccc(C)c1Cn1nc(C(C)(C)C)cc1C(=O)NS(=O)(=O)c1cccs1 [Compound 77, 5-tert-butyl-2-[(2,6-dimethylphenyl)methyl]-N-(2-thienylsulfonyl)pyrazole-3-carboxamide] |
| +++ (“+++” means <3 uM) | Cc1cc(C)c(Oc2nc(C(C)(C)C)ccc2C(=O)NS(=O)(=O)c2ccccc2C#N)c(C)c1 [Compound 78, 6-tert-butyl-N-(2-cyanophenyl)sulfonyl-2-(2,4,6-trimethylphenoxy)pyridine-3-carboxamide] |
| ++ (“++” means between 3 uM and 10 uM) | COc1ccccc1S(=O)(=O)NC(=O)C1c2ccccc2CN1Cc1c(C)cc(C)cc1C (stereo not drawn) [Compound 79, N-(2-methoxyphenyl)sulfonyl-2-[(2,4,6-trimethylphenyl)methyl]isoindoline-1-carboxamide] |
| +++ (“+++” means <3 uM) | Cc1cccc(S(=O)(=O)NC(=O)c2cc(C(C)(C)C)nn2Cc2c(C)cc(C)cc2C)c1 [Compound 80, 5-tert-butyl-N-(m-tolylsulfonyl)-2-[(2,4,6-trimethylphenyl)methyl]pyrazole-3-carboxamide] |
| +++ (“+++” means <3 uM) | Cc1cccc(C)c1Cn1nc(C(C)(C)C)cc1C(=O)NS(=O)(=O)c1ccc(N)cc1 [Compound 81, N-(4-aminophenyl)sulfonyl-5-tert-butyl-2-[(2,6-dimethylphenyl)methyl]pyrazole-3-carboxamide] |
| +++ (“+++” means <3 uM) | Cc1cc(C)c(Cn2c(C(=O)NS(=O)(=O)c3ccncc3)cc3c(Cl)cccc32)c(C)c1 [Compound 82, 4-chloro-N-(4-pyridylsulfonyl)-1-[(2,4,6-trimethylphenyl)methyl]indole-2-carboxamide] |
| +++ (“+++” means <3 uM) | Cc1cccc(C)c1Cn1nc(-c2cccc(Cl)c2)cc1C(=O)NS(=O)(=O)c1ccccc1 [Compound 83, N-(benzenesulfonyl)-5-(3-chlorophenyl)-2-[(2,6-dimethylphenyl)methyl]pyrazole-3-carboxamide] |
| +++ (“+++” means <3 uM) | Cc1cc(C)c(Cn2nc(C(C)(C)C)cc2C(=O)NS(=O)(=O)c2cccc(O)c2)c(C)c1 [Compound 84, 5-tert-butyl-N-(3-hydroxyphenyl)sulfonyl-2-[(2,4,6-trimethylphenyl)methyl]pyrazole-3-carboxamide] |
| ++ (“++” means between 3 uM and 10 uM) | CN(c1ccccc1)c1nc(C(C)(C)C)ccc1C(=O)NS(=O)(=O)c1cccc(N)c1 [Compound 85, N-(3-aminophenyl)sulfonyl-6-tert-butyl-2-(N-methylanilino)pyridine-3-carboxamide] |
| ++ (“++” means between 3 uM and 10 uM) | Cc1cccc(C)c1Cn1nc(C(C)(C)C)cc1C(=O)NS(=O)(=O)c1cccc2[nH]ncc12 [Compound 86, 5-tert-butyl-2-[(2,6-dimethylphenyl)methyl]-N-(1H-indazol-4-ylsulfonyl)pyrazole-3-carboxamide] |
| +++ (“+++” means <3 uM) | Cc1cc(C)c(Cn2c(C(=O)NS(=O)(=O)c3ccccc3)cc3c(F)cccc32)c(C)c1 [Compound 87, N-(benzenesulfonyl)-4-fluoro-1-[(2,4,6-trimethylphenyl)methyl]indole-2-carboxamide] |

| EC30 | SMILES |
| --- | --- |
| +++ (“+++” means <3 uM) | Cc1cccc(C)c1Cn1nc(C(C)(C)C)cc1C(=O)NS(=O)(=O)c1ccccc1N [Compound 88, N-(2-aminophenyl)sulfonyl-5-tert-butyl-2-[(2,6-dimethylphenyl)methyl]pyrazole-3-carboxamide] |
| +++ (“+++” means <3 uM) | COc1ncccc1S(=O)(=O)NC(=O)c1ccc(C(C)(C)C)nc1Oc1ccc(C)cc1C [Compound 89, 6-tert-butyl-2-(2,4-dimethylphenoxy)-N-[(2-methoxy-3-pyridyl)sulfonyl]pyridine-3-carboxamide] |
| +++ (“+++” means <3 uM) | Cc1cc(C)c(CN2Cc3ccccc3C2C(=O)NS(=O)(=O)c2cccc(N)c2)c(C)c1 (stereo not drawn) [Compound 90, N-(3-aminophenyl)sulfonyl-2-[(2,4,6-trimethylphenyl)methyl]isoindoline-1-carboxamide] |
| ++ (“++” means between 3 uM and 10 uM) | Cc1cc(C)c(Oc2nc3ccccc3cc2C(=O)NS(=O)(=O)c2cccc(N)n2)c(C)c1 [Compound 91, N-[(6-amino-2-pyridyl)sulfonyl]-2-(2,4,6-trimethylphenoxy)quinoline-3-carboxamide] |
| +++ (“+++” means <3 uM) | COc1cccnc1S(=O)(=O)NC(=O)c1ccc(C(C)(C)C)nc1Oc1c(C)cc(C)cc1C [Compound 92, 6-tert-butyl-N-[(3-methoxy-2-pyridyl)sulfonyl]-2-(2,4,6-trimethylphenoxy)pyridine-3-carboxamide] |
| +++ (“+++” means <3 uM) | Cc1cc(C)c(Oc2nc(-c3ccc(F)cc3)ccc2C(=O)NS(=O)(=O)c2cccc(N)n2)c(C)c1 [Compound 93, N-[(6-amino-2-pyridyl)sulfonyl]-6-(4-fluorophenyl)-2-(2,4,6-trimethylphenoxy)pyridine-3-carboxamide] |
| +++ (“+++” means <3 uM) | Cc1cc(C)c(CN2Cc3ccccc3C2C(=O)NS(=O)(=O)c2ccncc2)c(C)c1 (stereo not drawn) [Compound 94, N-(4-pyridylsulfonyl)-2-[(2,4,6-trimethylphenyl)methyl]isoindoline-1-carboxamide] |
| +++ (“+++” means <3 uM) | Cc1cc(C)c(CN2Cc3cccc(C)c3CC2C(=O)NS(=O)(=O)c2cccc(N)n2)c(C)c1 (stereo not drawn) [Compound 95, N-[(6-amino-2-pyridyl)sulfonyl]-5-methyl-2-[(2,4,6-trimethylphenyl)methyl]-3,4-dihydro-H-isoquinoline-3-carboxamide] |
| +++ (“+++” means <3 uM) | Cc1cc(C)c(Oc2nc(C(F)(F)F)ccc2C(=O)NS(=O)(=O)c2cccc(N)c2)c(C)c1 [Compound 96, N-(3-aminophenyl)sulfonyl-6-(trifluoromethyl)-2-(2,4,6-trimethylphenoxy)pyridine-3-carboxamide] |
| +++ (“+++” means <3 uM) | Cc1cc(C)c(Oc2nc(-c3c(C)cccc3C)ccc2C(=O)NS(=O)(=O)c2cccc(N)n2)c(C)c1 [Compound 97, N-[(6-amino-2-pyridyl)sulfonyl]-6-(2,6-dimethylphenyl)-2-(2,4,6-trimethylphenoxy)pyridine-3-carboxamide] |
| +++ (“+++” means <3 uM) | Cc1c(Cn2nc(C(C)(C)C)cc2C(=O)NS(=O)(=O)c2ccccc2)cccc1C(F)(F)F [Compound 98, N-(benzenesulfonyl)-5-tert-butyl-2-[[2-methyl-3-(trifluoromethyl)phenyl]methyl]pyrazole-3-carboxamide] |
| +++ (“+++” means <3 uM) | Cc1cccc(C)c1Cn1nc(-c2ccccc2C#N)cc1C(=O)NS(=O)(=O)c1ccccc1 [Compound 99, N-(benzenesulfonyl)-5-(2-cyanophenyl)-2-[(2,6-dimethylphenyl)methyl]pyrazole-3-carboxamide] |
| +++ (“+++” means <3 uM) | COc1ccc(OC)c(-c2cc(C(=O)NS(=O)(=O)c3ccccc3)n(Cc3c(C)cccc3C)n2)c1 [Compound 100, N-(benzenesulfonyl)-5-(2,5-dimethoxyphenyl)-2-[(2,6-dimethylphenyl)methyl]pyrazole-3-carboxamide] |
| +++ (“+++” means <3 uM) | COc1cccc(Oc2nc(C(C)(C)C)ccc2C(=O)NS(=O)(=O)c2ccccc2)c1 [Compound 101, N-(benzenesulfonyl)-6-tert-butyl-2-(3-methoxyphenoxy)pyridine-3-carboxamide] |
| +++ (“+++” means <3 uM) | Cc1cc(C)c(Oc2cc(C(C)(C)C)ccc2C(=O)NS(=O)(=O)c2cccc(N)n2)c(C)c1 [Compound 102, N-[(6-amino-2-pyridyl)sulfonyl]-4-tert-butyl-2-(2,4,6-trimethylphenoxy)benzamide] |
| +++ (“+++” means <3 uM) | Cc1cc(C)c(CN2Cc3c(C(C)C)cccc3C2C(=O)NS(=O)(=O)c2ccc[nH]c2=O)c(C)c1 (stereo not drawn) [Compound 103, 4-isopropyl-N-[(2-oxo-1H-pyridin-3-yl)sulfonyl]-2-[(2,4,6-trimethylphenyl)methyl]isoindoline-1-carboxamide] |
